The test system of series [1] is NCI-H460/R. As to the kind of experiment: MTT assay, reversal of DOX resistance in NCI-H460/R cells. It is filed as cell-based, human. To be noted: for Relative Reversal of DOX resistance: IC50 DOX alone / IC50 in combination. As for the experimental part:
(§1) The metabolic activity of viable cells was measured by MTT assay. Cells grown in 25 cm^2 tissue flasks were trypsinized, seeded into flat-bottomed 96-well tissue culture plates, and incubated overnight. Subsequently, the cells were treated with increasing concentrations of Si306, pro-Si306, and dasatinib (1–25 μM), as well as with Si221 and pro-Si221 (2.5–50 μM) for 72 h. In addition, the combined effects of Si306, pro-Si306, and pro-Si221with DOX as well as with PTX were studied in NCI-H460/R and DLD1-TxR cells, respectively. In simultaneous treatments that lasted 72 h in NCI-H460/R and DLD1-TxR cells, two concentrations of Si306, pro-Si306, and pro-Si221 (0.2 μM and 0.5 μM) were combined with increasing concentrations of DOX and PTX (0.1–2 μM). After treatment, MTT was added to each well at a final concentration of 0.2 mg/mL for 3 h. Then, formazan produced in cells with intact/viable mitochondria was dissolved in 200 μL of DMSO, and the absorbance was measured at 570 nm on a Multiskan Sky Microplate Spectrophotometer (ThermoFisher Scientific, United States). The IC50 value is defined as the concentration of a drug that decreases cell viability by 50% and was calculated by nonlinear regression analysis using GraphPad Prism 6.0 for Windows (La Jolla, CA, USA). Relative reversal was calculated as a relation between the IC50 values of DOX and PTX alone obtained in NCI-H460/R and DLD1-TxR cells, respectively and the IC50 values of DOX and PTX in combination with Pro-Si306 and Pro-Si221.

Series [2] deals with NCI-H460. As to the kind of experiment: MTT cell viability assay, NCI-H460. It counts as cell-based. To be noted: Homo sapiens, 72 h, read-out: Decrease in cell viability, IC50. As for the experimental part:
as §1
(In general: Tetrazolium assays rely on reduction of a dye to a coloured formazan, in cell work by metabolically active cells.)

Series [3] deals with NCI-H460/R. Put plainly: MTT cell viability assay, NCI-H460/R. It counts as cell-based, human. To be noted: for IC50: Homo sapiens, NCI-H460/R (MDR), MTT, 72 h, read-out: Decrease in cell viability, IC50. As for the experimental part:
as §1

Series [4] has as its system DLD1. Put plainly: MTT cell viability assay, DLD1. To be noted: Homo sapiens, DLD-1, 72 h, read-out: Decrease in cell viability, IC50. It is filed as cell-based. How it is done: as §1
In series [5] the test system is DLD1-TxR. As to the kind of experiment: MTT cell viability assay, DLD1-TxR. It is filed as cell-based. To be noted: Homo sapiens, DLD1-TxR (MDR), 72 h, read-out: Decrease in cell viability, IC50. As for the experimental part:
as §1

Series [6] concerns NCI-H460, NCI-H460/R, DLD1, DLD1-TxR. As to the kind of experiment: MTT cell viability assay, two sensitive/MDR cancer cell line pairs. It counts as cell-based. To be noted: Homo sapiens, summary over the four cell lines, 72 h. How it is done: as §1
Series [7] addresses T1, P-gp (Homo sapiens, UniProt P08183). Put plainly: Rho 123 accumulation assay (P-gp activity) in NCI-H460/R cells. To be noted: for P-gp inhibition by Rho 123 intracellular accumulation / IC50 / kinetics of P-gp inhibition (Rho123 accumulation): NCI-H460/R; for P-gp inhibition by Rho 123 intracellular accumulation: 10 µM, 30-min treatment, compared with Dex-VER; for IC50: IC50 for P-gp inhibition, Rho123 accumulation, 30 min; for kinetics of P-gp inhibition (Rho123 accumulation): 24-, 48-, 96-, 168-h treatments, 10 µM pro-Si306, pro-Si221, 5 and 10 nM TQ.
Method: (§3) The accumulation of fluorescent P-gp substrate Rho 123 was analyzed by flow cytometry. The intensity of fluorescence was proportional to Rho 123 accumulation in the cell. […] NCI-H460 and DLD1 cells were used as a positive control for Rho 123 accumulation. All cell lines were seeded in adherent 6-well plates and grown overnight. In simultaneous treatment that lasted 30 min, 5 μM Rho 123 was applied along with 10 μM of Si306, pro-Si306, Si221, pro-Si221, dasatinib, and Dex-VER. […] Samples were incubated for 30 min at 37 °C in 5% CO2. […] At the end of the accumulation period, the cells were trypsinized, pelleted by centrifugation, washed with PBS, and placed in ice-cold PBS. The samples were kept on ice in the dark until analysis on a CyFlow Space Partec flow cytometer (Sysmex Partec GmbH, Görlitz, Germany). The fluorescence of Rho 123 was detected on fluorescence channel 1 (FL1-H) at 530 nm. Three independent experiments were performed for each experimental setting. A minimum of 10,000 events was assayed for each sample, and the obtained results were analyzed using Summit Dako Software (ver. 4.3, Fort Collins, CO, USA).

Series [8] deals with DLD1-TxR. As to the kind of experiment: MTT assay, reversal of PTX resistance in DLD1-TxR cells. It is filed as cell-based, human. To be noted: for Relative Reversal of PTX resistance: IC50 PTX alone / IC50 in combination. How it is done:
as §1

In series [9] the test system is P-gp expression. As to the kind of experiment: Flow cytometric analysis of P-gp expression in NCI-H460/R cells. It is filed as cell-based, human. To be noted: 48-h treatment, Si306, pro-Si306 5 and 10 µM, pro-Si221 1 and 2 µM, TQ 5 and 10 nM. How it is done:
(§2) The P-gp expression level in NCI-H460/R and DLD1-TxR was measured by flow cytometry. […] After 48 h, cells were collected by trypsinization, washed in PBS, and then directly immuno stained by FITC-conjugated anti-P-gp antibody according to the manufacturer’s protocol.
In general terms: A flow cytometer gives signals particle by particle.

The subject of series [10] is P-gp expression. As to the kind of experiment: Flow cytometric analysis of P-gp expression in DLD1-TxR cells. It is filed as cell-based, human. To be noted: 48-h treatment, Si306, pro-Si306 5 and 10 µM, pro-Si221 1 and 2 µM, TQ 5 and 10 nM. As for the experimental part: as §2
Series [11] deals with T1, P-gp. As to the kind of experiment: P-gp ATPase activity assay (Pgp-Glo). It is filed as biochemical. Also on record: purchased Promega, Madison, WI, USA. To be noted: 5 µM and 20 µM; verapamil positive control. As for the experimental part: P-gp function depends on ATP hydrolysis energy, and compounds that interact with P-gp can stimulate or inhibit its ATPase activity. P-gp ATPase activity is usually stimulated by its substrates. The Pgp-GloTM assay system detects a compound’s effect on recombinant human P-gp in a cell membrane fraction. P-gp ATPase activity was measured using the luminescent Pgp-Glo^TM assay kit according to manufacturer’s instructions. Briefly, ATP was first incubated with P-gp; then, the P-gp ATPase reaction was stopped, and the remaining un-metabolized ATP was detected as a luciferase-generated luminescent signal. P-gp-dependent decreases in luminescence reflect ATP consumption by P-gp; thus, the greater the decrease in signal, the higher the P-gp activity. […] Na3VO4 is a noncompetitive inhibitor of P-gp ATPase activity. The difference in the luminescent signal, expressed as relative light units (RLU), between Na3VO4-treated samples and untreated samples represents the basal P-gp ATPase activity (ΔRLU basal). The difference in the luminescent signal between Na3VO4-treated samples and samples treated with the tested compounds represents P-gp ATPase activity in the presence of the tested compounds. […] The luminescence of samples treated with 5 μM and 20 μM of Si306, pro-Si306, and pro-Si221 was measured using a luminometer microplate reader (CHAMELEONTMV, Hidex, Turku, Finland).

For series [12], the target named is T1, P-gp. As to the kind of experiment: Rho 123 accumulation assay (P-gp activity) in DLD1-TxR cells. To be noted: for P-gp inhibition by Rho 123 intracellular accumulation / kinetics of P-gp inhibition (Rho123 accumulation) / IC50: DLD1-TxR; for P-gp inhibition by Rho 123 intracellular accumulation: 10 µM, 30-min treatment, compared with Dex-VER; for kinetics of P-gp inhibition (Rho123 accumulation): 24-, 48-, 96-, 168-h treatments, 10 µM pro-Si306, 1 and 2 µM pro-Si221, 5 and 10 nM TQ; for IC50: IC50 for P-gp inhibition, Rho123 accumulation, 30 min.
Method: as §3

Molecules are shown by their SMILES. Where “and” joins values, the source holds several entries; their conditions need not be identical. Equal entries are not always repeated. Entries after “also recorded” stand apart in the source; their conditions may differ.

T1 sequence (P08183 whole entry): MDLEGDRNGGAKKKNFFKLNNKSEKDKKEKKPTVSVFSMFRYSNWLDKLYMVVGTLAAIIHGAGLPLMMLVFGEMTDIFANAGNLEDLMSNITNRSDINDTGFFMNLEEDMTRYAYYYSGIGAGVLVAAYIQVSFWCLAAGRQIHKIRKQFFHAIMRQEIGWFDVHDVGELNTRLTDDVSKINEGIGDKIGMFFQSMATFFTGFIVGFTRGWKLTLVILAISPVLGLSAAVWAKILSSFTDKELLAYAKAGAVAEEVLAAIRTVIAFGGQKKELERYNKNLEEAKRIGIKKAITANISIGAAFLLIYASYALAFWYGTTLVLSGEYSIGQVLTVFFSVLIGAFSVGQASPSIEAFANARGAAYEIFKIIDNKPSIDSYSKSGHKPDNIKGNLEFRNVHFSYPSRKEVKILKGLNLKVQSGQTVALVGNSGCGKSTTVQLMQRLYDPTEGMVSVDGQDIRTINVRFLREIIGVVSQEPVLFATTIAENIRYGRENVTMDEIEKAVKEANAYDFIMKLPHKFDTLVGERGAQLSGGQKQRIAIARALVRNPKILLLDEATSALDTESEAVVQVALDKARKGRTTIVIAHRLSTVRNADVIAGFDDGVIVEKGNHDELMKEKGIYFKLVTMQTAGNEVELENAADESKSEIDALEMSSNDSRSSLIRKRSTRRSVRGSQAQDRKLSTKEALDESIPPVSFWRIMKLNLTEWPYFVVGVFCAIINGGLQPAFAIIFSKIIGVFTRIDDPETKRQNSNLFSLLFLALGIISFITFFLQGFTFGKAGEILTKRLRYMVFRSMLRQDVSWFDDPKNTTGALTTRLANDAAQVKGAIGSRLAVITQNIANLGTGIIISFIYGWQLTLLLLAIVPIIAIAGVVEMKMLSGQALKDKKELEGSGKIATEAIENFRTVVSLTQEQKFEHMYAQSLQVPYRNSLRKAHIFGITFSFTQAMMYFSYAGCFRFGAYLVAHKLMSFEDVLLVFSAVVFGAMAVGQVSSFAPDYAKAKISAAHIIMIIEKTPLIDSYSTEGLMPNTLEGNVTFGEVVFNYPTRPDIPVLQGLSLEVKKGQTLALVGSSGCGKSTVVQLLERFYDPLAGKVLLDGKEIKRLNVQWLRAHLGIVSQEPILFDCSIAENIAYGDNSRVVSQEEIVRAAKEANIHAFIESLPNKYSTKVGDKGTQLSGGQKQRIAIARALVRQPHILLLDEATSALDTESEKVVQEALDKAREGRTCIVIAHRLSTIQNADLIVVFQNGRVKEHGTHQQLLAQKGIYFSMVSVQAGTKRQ

The IC50 is the midpoint of a concentration-inhibition curve. Consider `COc1cccc2c1C(=O)c1c(O)c3c(c(O)c1C2=O)C[C@@](O)(C(=O)CO)C[C@@H]3O[C@H]1C[C@H](N)[C@H](O)[C@H](C)O1` [DOX, doxorubicin, reference compound], for which the IC50 in [1] (Homo sapiens, MTT, 72 h, read-out: IC50 of DOX alone) came to 0.905 ± 0.0444 µM.

As to `Cc1nc(Nc2ncc(C(=O)Nc3c(C)cccc3Cl)s2)cc(N2CCN(CCO)CC2)n1` [Dasatinib, reference compound], the IC50 in series [2] is 3.93 ± 0.295 µM; in series [3] it was 6.88 ± 0.605 µM; in [4], 3.24 ± 0.411 µM; in [5], 2.9 ± 0.223 µM; in series [6] it was less than 10 µM. For the same compound, the “P-gp inhibition by Rho 123 intracellular accumulation” value in series [7] was “did not show potential to inhibit P-gp”.

In the case of `CC(=O)O[C@H]1C(=O)[C@@]2(C)[C@H]([C@H](OC(=O)c3ccccc3)[C@]3(O)C[C@H](OC(=O)[C@H](O)[C@@H](NC(=O)c4ccccc4)c4ccccc4)C(C)=C1C3(C)C)[C@]1(OC(C)=O)CO[C@@H]1C[C@@H]2O` [PTX, paclitaxel, reference compound], the IC50 in series [8] (Homo sapiens, MTT, 72 h, read-out: IC50 of PTX alone) turned out to be 1.05 ± 0.115 µM.

What is called inhibition is the relative decrease from the control value, in per cent. `CN1CCN(CCOC(=O)N(Cc2ccccc2Cl)c2ncnc3c2cnn3CC(Cl)c2ccc(Br)cc2)CC1` (centres unmarked) [Pro-Si221]: the IC50 is 4.27 ± 0.509 µM in series [2]; 5.14 ± 0.573 µM in [3]; 9.8 ± 1.15 µM in series [4]; 5.7 ± 0.543 µM in series [5]; less than 10 µM in series [6]; 669 ± 61 nM in [12]. The IC50 in series [7] amounted to 612 ± 72 nM. Besides, the “effect on P-gp expression (protein level)” value (shortened to “effect on P-gp expression”) is reported as “less pronounced effect on the increase in P-gp expression” in [9] and “tendency to decrease the P-gp expression” in series [10]. In addition, the “Relative Reversal of DOX resistance” value came out at 1.8 in series [1] (SFK inhibitor 0.2 µM) and 7.1 in [1] (SFK inhibitor 0.5 µM). In addition, the “Relative Reversal of PTX resistance” value in series [8] (SFK inhibitor 0.2 µM) came to 2.0; in series [8] (SFK inhibitor 0.5 µM), 3.2. The “effect on ATPase activity of P-gp” value in series [11] is “potential to inhibit the ATPase activity of P-gp; also recorded: highest inhibitory effect on ATPase activity”. Also, the “P-gp inhibition by Rho 123 intracellular accumulation” value in series [12] and in [7] was “considerably more potent than that observed with Dex-VER” each time. Moreover, the “kinetics of P-gp inhibition (Rho123 accumulation)” value in series [12] was “decline until 96 h when it reached stable P-gp inhibition”; in series [7], “continued to decrease until 48 h when it reached stability and was sustained even after 168 h”. For the same compound, the inhibition at 30 min, 1 µM was found to be 100% in [12] (human, DLD1-TxR cells, probe Rho 123 (5 µM)) and 100% in series [7] (human, NCI-H460/R cells, probe Rho 123 (5 µM)).

For the compound `Clc1ccccc1CNc1ncnc2c1cnn2CC(Cl)c1ccc(Br)cc1` (centres unmarked) [Si221], the IC50 was 14.6 ± 1.48 µM in series [2], 18.1 ± 2.08 µM in [3], 34.1 ± 2.32 µM in [4] and 11.6 ± 1.29 µM in [5]. Further, the “P-gp inhibition by Rho 123 intracellular accumulation” value in series [12] and in series [7] was “did not modulate the activity of P-gp” in each case.

For the compound `ClC(Cn1ncc2c(Nc3cccc(Br)c3)nc(SCCN3CCOCC3)nc21)c1ccccc1` (centres unmarked) [Si306], the IC50 in [2] was 6.24 ± 0.685 µM; in [3], 1.89 ± 0.184 µM; in series [4] it was 3.93 ± 0.679 µM; in series [5] it was 2.56 ± 0.183 µM; in [6], less than 10 µM; in series [12] it was 6400 nM and 6440 nM. Moreover, the IC50 in series [7] is 13300 nM. Moreover, the “fold lower IC50 in MDR NCI-H460/R than in sensitive NCI-H460 cells” value in [3] (NCI-H460/R vs NCI-H460, MTT) was “more than 2 fold”. The entries for the “effect on P-gp expression” value in series [9] and in series [10] were “significantly increased P-gp expression” and “tendency to decrease the P-gp expression”, respectively. Besides, the “effect on ATPase activity of P-gp” value in series [11] was “potential to inhibit the ATPase activity of P-gp”. Further, the “P-gp inhibition by Rho 123 intracellular accumulation” value in series [12] and in series [7] was “considerably more potent than that observed with Dex-VER” each time.

Consider `COc1cc2c(cc1OC)CN(CCc1ccc(NC(=O)c3cc(OC)c(OC)cc3NC(=O)c3cnc4ccccc4c3)cc1)CC2` [TQ, tariquidar, reference compound], for which the “effect on P-gp expression” value in series [9] and in series [10] was “increased the expression of P-gp” throughout. The “kinetics of P-gp inhibition (Rho123 accumulation)” value in [12] and in series [7] was “reached stable P-gp inhibition after 48 h that was sustained until 168 h” in each case. In addition, the IC50 in [12] (TQ values in nM (footnote a)) is 0.925 ± 0.155 nM; in [7] (TQ values in nM (footnote a)) it was 1.07 ± 0.174 nM.

Source of the values: publication PMC8582576, “New Therapeutic Strategy for Overcoming Multidrug Resistance in Cancer Cells with Pyrazolo[3,4-d]pyrimidine Tyrosine Kinase Inhibitors” (Cancers, 2021).
